According to ChEMBL document CHEMBL1212803, “Resistance-associated mutations to etravirine (TMC-125) in antiretroviral-naïve patients infected with non-B HIV-1 subtypes” (2010):

How the values were obtained:
Assay type in all cases: functional
[1] = system: Human immunodeficiency virus 1; assay: Antiviral activity against HIV-1 subtype CRF02_AG containing reverse transcriptase E138A/K20R, V35T, E36D, T39N, V60I, D123N, I135V, S162A, K173T, Q174K, D177E, T200A, Q207E, R211K mutant relative to control
[2] = system: Human immunodeficiency virus 1; assay: Antiviral activity against HIV-1 subtype CRF02_AG containing reverse transcriptase V90I,A98G/V35T, E36D, T39K, S48A, I50V, V60I, S68G, I135V, S162A, K173T, Q174K, D177E, G196E, T200A, E203G, Q207D, R211K, Q222P mutant relative to control
[3] = system: Human immunodeficiency virus 1; assay: Antiviral activity against HIV-1 subtype CRF02_AG containing reverse transcriptase K101E/K30E, I31P, V35Q, T39S, E44G, E53G, A62G, N81H, Q91H,I135V,S162A, K173S, Q174R, D177E, V179I, T200I, Q207N, R211K, F214L mutant relative to control
[4] = system: Human immunodeficiency virus 1; assay: Antiviral activity against HIV-1 subtype CRF02_AG containing reverse transcriptase A98G/V35T, V60I, I135L, S162A, K173A, Q174K, D177E, I178M, T200A,Q207E, R211K, V245Q, D250E mutant relative to control
[5] = system: Human immunodeficiency virus 1; assay: Antiviral activity against HIV-1 subtype CRF02_AG containing reverse transcriptase V90I,Y181C/V35T, T39M, P119S, D123E, S162A, E169D, K173T, Q174K, D177E, T200A, Q207E, K219N, V245Q, E248D mutant relative to control
[6] = system: Human immunodeficiency virus 1; assay: Antiviral activity against HIV-1 subtype CRF02_AG containing reverse transcriptase E138A/K20R, V35T, E36A, T39D, V60I, I135V, T139I, K173A, Q174K, T200E, Q207A, R211K, F214L mutant relative to control
[7] = system: Human immunodeficiency virus 1; assay: Antiviral activity against HIV-1 subtype CRF02_AG containing reverse transcriptase V90I/V35T, E36D, V60I, K122E, D123S, I135V, E138D, S162A, K173T,Q174S, D177E, I178M, V189I, T200A, I202V, Q207E, F214L, V245Q mutant relative to control
[8] = system: Human immunodeficiency virus 1; assay: Antiviral activity against HIV-1 subtype CRF02_AG containing reverse transcriptase V90I/V35T, T39M, K46Q, V60I, S68G, D123E, I135V, S162A, K173A, Q174K,D177E, T200A, Q207E, R211K mutant relative to control
[9] = system: Human immunodeficiency virus 1; assay: Antiviral activity against HIV-1 subtype CRF02_AG containing reverse transcriptase Y181C/V35T, V60I, I135V, S162A, K173T, Q174K, N175Y, D177E, T200A, Q207E, R211K, H221Y mutant relative to control

Row | Structure (SMILES) | Ratio IC50 [1] | Ratio IC50 [2] | Ratio IC50 [3] | Ratio IC50 [4] | Ratio IC50 [5] | Ratio IC50 [6] | Ratio IC50 [7] | Ratio IC50 [8] | Ratio IC50 [9]
1 | Cc1cc(C#N)cc(C)c1Oc1nc(Nc2ccc(C#N)cc2)nc(N)c1Br [ETRAVIRINE] | 1.7 | 1.2 | 1.3 | 2.9 | 3.3 | 3 | 1.3 | 1.6 | 11.1
2 | Cc1ccnc2c1NC(=O)c1cccnc1N2C1CC1 [NEVIRAPINE] | 0.4 | 2.4 | 2.2 | 8.3 | >70.9 | 0.5 | 0.7 | 1.3 | >49.6
